Source: paper PMC7662321, “Andrographolide and Its 14-Aryloxy Analogues Inhibit Zika and Dengue Virus Infection” (Molecules, 2020)

Experiments:
Ran = test: 2D-PAGE proteomic analysis of treated A549 cells, Ran spot; assay type: cell-based, human; settings: A549, 25 µM, 24 h
Protocol: (§1) A549 cells were therefore treated with either vehicle (0.025% DMSO), or with 25 μM of andrographolide or ZAD-1, and at 24 h post-treatment, proteins were prepared and subjected to two-dimension polyacrylamide gel electrophoresis (2D-PAGE). The experiment was undertaken independently in triplicate and representative gels are shown Figure 5, with all replicates being shown in Supplementary Figure S12. […] All of these protein spots were cut from the gels and then subjected to in-gel tryptic digestion followed by mass spectrometry. MASCOT (Matrix Science Inc., Boston, MA, USA) search of the resultant masses identified 4 proteins (Table 3), namely heat shock protein 70 kDa 1A (HSPA1A), phosphoglycerate kinase 1 (PGK1), transketolase (TKT) and nuclear transport protein of GTP-binding nuclear protein Ran (Ran).
(§2) 2D-PAGE and mass spectroscopic identification of differentially expressed spots was undertaken essentially as previously described. […] Image data were analyzed using Image Master™ 2D Platinum software version 7.0 (GenBio, Geneva, Switzerland). Each spot was evaluated on intensity, volume and area. […] After tryptic in-gel digestion, peptide masses were determined by LC-MS/MS using SYNAPT high definition MS (HDMS) (Waters Corp., Milford, MA, USA).

[1] = MTT cytotoxicity assay in Vero cells; assay type: cell-based; settings: African green monkey, Vero cells (monkey kidney), 24 h post-treatment
Protocol: Cytotoxicity of each compound towards cells for four selected cell lines in the range of 1 to 500 µM was evaluated using the MTT (3-(4,5-dimethylthiazol-2-yl)-2,5-diphenyltetrazolium bromide) assay at 24 h post-treatment, in parallel with control and vehicle-treated cells (0.1% dimethyl sulfoxide (DMSO)). The 50% cytotoxic concentration (CC50) values calculated from the dose-response curve (Supplementary Figures S2–S5) are shown in Table 1. Overall, a range of cytotoxicities were seen from the four compounds across the […]. The most cytotoxic combination was ZAD-1 and BHK-21 cells, while the least cytotoxic combination was andrographolide and BHK-21 cells (Table 1).
A549 cells were cultured in ninety-six-well tissue culture plates under standard conditions until the cells reached 90% confluence. The cell culture medium was removed and then cells were incubated with various concentrations of andrographolide (1–100 μM) diluted in complete medium with FBS prior to being cultured for 24 h under standard conditions before analysis using either the Vybrant MTT Cell proliferation assay kit (V13154, Invitrogen) or the alamarBlue (Thermo Fischer Scientific, Waltham, MA, USA) assay kit according to the manufacturers recommendations. Values were determined from 8 (MTT assay) or 3 (alamarBlue) independent replicates. Negative controls (only media and media with 0.1% DMSO) and positive controls (5% DMSO) were included. To determine cell number, cell cultures were trypsinized by the addition of 0.25% Trypsin/0.1% ethylelediaminetetraacetic acid (EDTA) for 3 min and then cell suspensions were diluted with 0.4% trypan blue solution. Cells were counted using a hemocytometer. Cell morphology was additionally observed under an inverted microscope after 24 h treatment with various concentrations of each compound.
Figu re S3. Cytotoxicity of ZAD -1 (A), ZA D-2 (B), ZA D-3 (C), and andro grapholide (D) to Ve r o (monkey kidney) cells. Ve r o cells were incubated with various concentrations of each compound for 24 hrs followed by MTT cell viability assay. The experiment was undertaken independently in 4 replicates. DMSO at the same concentrations was used as a control. 10% ethanol, PBS, and milli- Q water were used as a positive control of cell death. The bars show mean ± SD. […]

ZIKV = test: Percentage of ZIKV infection of A549 cells by flow cytometry; assay type: cell-based, Zika virus; settings: A549, MOI 5, 10 and 25 µM, 24 h, vs vehicle
Protocol: To confirm the effects of andrographolide and the andrographolide analogues on ZIKV infection, A549 cells were infected with ZIKV at MOI of 5 for 2 h, and subsequently treated with the compounds at concentrations of 10 and 25 μM or with vehicle for 24 h. The cells were harvested for determination of the percentage of infection by flow cytometry, while the supernatants were collected for determination of viral titer by standard plaque assay.
HEK293T/17 or A549 cells were cultured in six-well plates under standard conditions until the cells reached 80% confluence. HEK293T/17 cells were infected with DENV 2, while A549 cells were infected with ZIKV Thai strain at MOI 5 for 2 h at 37 °C and 5% CO2 in culture medium without FBS. Mock infection was undertaken in parallel. After the infection period, the medium was removed and replaced with complete medium (including FBS) containing 0.1% DMSO (no treatment control) or the appropriate concentration of each compound and cells were again incubated under standard conditions. At 24 h post-treatment, cells were harvested for determination of effects of compounds on percentage of infection and supernatant was collected for determination of viral productivity. All experiments were undertaken independently in triplicate with duplicate plaque assay.
Mock- or viral-infected cells (with or without compound treatment) were harvested at an appropriate time point then incubated with 10% normal goat serum (NGS; Gibco Invitrogen) in PBS-immunofluorescence assay (IFA) buffer on ice for 30 min. The cells were washed with 800 µL of 1% BSA/PBS-IFA and fixed with 200 µL of 4% paraformaldehyde in PBS-IFA at room temperature in the dark for 20 min. After washing with 800 µL of 1% BSA/PBS-IFA, cells were permeabilized with 200 µL of 0.2% Triton X-100 in PBS-IFA for 10 min at room temperature in the dark. Subsequently, the cells were washed with 800 µL of 1% BSA/PBS-IFA followed by overnight incubation with 50 µL of primary antibody (1:150 dilution of pan-specific anti-dengue virus E protein antibody HB114 for DENV and 1:2 dilution of anti-flavivirus antibody HB112 for ZIKV). After washing twice with 800 µL of 1% BSA/PBS-IFA, the cells were incubated with 50 µL of a goat anti-mouse IgG conjugated with fluorescein isothiocyanate (FITC; KPL, Guilford, UK) diluted 1:40 with 1% BSA/PBS-IFA at room temperature in the dark for 1 h. The cells were washed twice with 800 µL of 1% BSA/PBS-IFA and resuspended in 100 µL of PBS-IFA. The fluorescence signal was analyzed by flow cytometry on a BD FACalibur cytometer (Becton Dickinson, BD Biosciences, San Jose, CA, USA) using CellQuest™ software (Version 6). All experiments were undertaken independently in triplicate. All raw flow cytometry data plots are provided in Supplementary Figures S13–S19.

HSPA1A = test: 2D-PAGE proteomic analysis of treated A549 cells, HSPA1A spot; assay type: cell-based, human; settings: A549, 25 µM, 24 h
Protocol: as §1, §2

| Compound | Intensity Level, spot 4 Ran (Ran) | CC50 at 24 h [1] | number of ZIKV-infected cells (percentage of infection) (ZIKV) | Intensity Level, spot 1 HSPA1A (HSPA1A) |
| --- | --- | --- | --- | --- |
| C=C1CC[C@@H]2[C@](C)(CO)[C@H](O)CC[C@@]2(C)[C@@H]1C/C=C1/C(=O)OC[C@H]1O [Andrographolide] | 698.483 | 469 ± 73 µM | significantly reduced | 2410.2 |
| C=C1CC[C@@H]2[C@]3(C)COC(C)(C)O[C@@H]3CC[C@@]2(C)[C@@H]1C/C=C1/C(=O)OC[C@@H]1Oc1c(Cl)cc(Cl)c2ccc(C)nc12 [ZAD-1] | 2096.79 | 510 ± 53 µM | significantly reduced | 1279.25 |
